# In PubChem BioAssay AID2060486 (Molecular Pharmacology Branch, DTP, NCI, 2025):
# Tested on: IGROV1 complex spheroids (HUVEC, MSC), viability % test/control
# Test: Anticancer human tumor IGROV1 cell line growth inhibition [GQUAD];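 further: spheroids exposed to compounds for 7 days before readout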;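 on viability, T/C: 100% = DMSO vehicle control viability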
# Details: for IC50: curve of first compound; for viability, T/C: stronger effect = lower value
# In short: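 Tumor cells were grown as complex spheroids with HUVEC endothelial cells and mesenchymal stem cells as stroma. G-quadruplex stabilizers were combined with targeted agents over half-log dilutions from near the clinical Cmax, or from 10 microM.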
# [1] = second compound 0.0316 µM, first compound 0.0316 µM
# [2] = second compound 0.0316 µM, first compound 0.316 µM
# [3] = second compound 0.1 µM, first compound 0.0316 µM
# [4] = second compound 0.1 µM, first compound 0.316 µM
# [5] = second compound 0.316 µM, first compound 0.0316 µM
# [6] = second compound 0.316 µM, first compound 0.316 µM
# [7] = second compound 1 µM, first compound 0.0316 µM
# [8] = second compound 1 µM, first compound 0.316 µM
# [9] = second compound 3.16 µM, first compound 0.0316 µM
# [10] = second compound 3.16 µM, first compound 0.316 µM
# [11] = second compound 10 µM, first compound 0.0316 µM
# [12] = second compound 10 µM, first compound 0.316 µM
# [13] = second compound 0.0316 µM, first compound 0.000999 µM
# [14] = second compound 0.0316 µM, first compound 0.00316 µM
# [15] = second compound 0.0316 µM, first compound 0.00999 µM
# [16] = second compound 0.0316 µM, first compound 0.0999 µM
# [17] = second compound 0.1 µM, first compound 0.000999 µM
# [18] = second compound 0.1 µM, first compound 0.00316 µM
# [19] = second compound 0.1 µM, first compound 0.00999 µM
# [20] = second compound 0.1 µM, first compound 0.0999 µM
# [21] = second compound 0.316 µM, first compound 0.000999 µM
# [22] = second compound 0.316 µM, first compound 0.00316 µM
# [23] = second compound 0.316 µM, first compound 0.00999 µM
# [24] = second compound 0.316 µM, first compound 0.0999 µM
# [25] = second compound 1 µM, first compound 0.000999 µM
# [26] = second compound 1 µM, first compound 0.00316 µM
# [27] = second compound 1 µM, first compound 0.00999 µM
# [28] = second compound 1 µM, first compound 0.0999 µM
# [29] = second compound 3.16 µM, first compound 0.000999 µM
# [30] = second compound 3.16 µM, first compound 0.00316 µM
# [31] = second compound 3.16 µM, first compound 0.00999 µM
# [32] = second compound 3.16 µM, first compound 0.0999 µM
# [33] = second compound 10 µM, first compound 0.000999 µM
# [34] = second compound 10 µM, first compound 0.00316 µM
# [35] = second compound 10 µM, first compound 0.00999 µM
# [36] = second compound 10 µM, first compound 0.0999 µM
smiles,measurement,setting,value
C=CC(=O)N1CCN(c2nc(=O)n(-c3c(C)ccnc3C(C)C)c3nc(-c4c(O)cccc4F)c(F)cc23)C(C)C1 (stereo unspecified) + Cc1cnc(CNC(=O)c2c(=O)c3ccc(N4CCCN(C)CC4)nc3n3c2sc2ccccc23)cn1,IC50,second compound 0.0316 µM,> 10000 nM
same,IC50,second compound 0.1 µM,78.4 nM
same,IC50,second compound 0.316 µM,< 31.6 nM
same,IC50,second compound 1 µM,< 31.6 nM
same,IC50,second compound 3.16 µM,< 31.6 nM
same,IC50,second compound 10 µM,< 31.6 nM
same,"viability, T/C",[1],82.8%
same,"viability, T/C","second compound 0.0316 µM, first compound 0.1 µM",77.2%
same,"viability, T/C",[2],88.5%
same,"viability, T/C","second compound 0.0316 µM, first compound 1 µM",60.1%
same,"viability, T/C","second compound 0.0316 µM, first compound 3.16 µM",94.6%
same,"viability, T/C","second compound 0.0316 µM, first compound 10 µM",66.9%
same,"viability, T/C",[3],51.8%
same,"viability, T/C","second compound 0.1 µM, first compound 0.1 µM",49.3%
same,"viability, T/C",[4],51.4%
same,"viability, T/C","second compound 0.1 µM, first compound 1 µM",43.8%
same,"viability, T/C","second compound 0.1 µM, first compound 3.16 µM",46.6%
same,"viability, T/C","second compound 0.1 µM, first compound 10 µM",51.4%
same,"viability, T/C",[5],27%
same,"viability, T/C","second compound 0.316 µM, first compound 0.1 µM",44.7%
same,"viability, T/C",[6],39.8%
same,"viability, T/C","second compound 0.316 µM, first compound 1 µM",33.4%
same,"viability, T/C","second compound 0.316 µM, first compound 3.16 µM",44.9%
same,"viability, T/C","second compound 0.316 µM, first compound 10 µM",28.6%
same,"viability, T/C",[7],18.5%
same,"viability, T/C","second compound 1 µM, first compound 0.1 µM",20.1%
same,"viability, T/C",[8],17%
same,"viability, T/C","second compound 1 µM, first compound 1 µM",17.7%
same,"viability, T/C","second compound 1 µM, first compound 3.16 µM",26.8%
same,"viability, T/C","second compound 1 µM, first compound 10 µM",19.7%
same,"viability, T/C",[9],10.2%
same,"viability, T/C","second compound 3.16 µM, first compound 0.1 µM",11.6%
same,"viability, T/C",[10],11.6%
same,"viability, T/C","second compound 3.16 µM, first compound 1 µM",12.5%
same,"viability, T/C","second compound 3.16 µM, first compound 3.16 µM",15.6%
same,"viability, T/C","second compound 3.16 µM, first compound 10 µM",12.9%
same,"viability, T/C",[11],12.3%
same,"viability, T/C","second compound 10 µM, first compound 0.1 µM",16.2%
same,"viability, T/C",[12],16.6%
same,"viability, T/C","second compound 10 µM, first compound 1 µM",15.6%
same,"viability, T/C","second compound 10 µM, first compound 3.16 µM",14.6%
same,"viability, T/C","second compound 10 µM, first compound 10 µM",10%
CC[C@@]1(O)C(=O)OCc2c1cc1n(c2=O)Cc2cc3c(CN(C)C)c(O)ccc3nc2-1 + Cc1cnc(CNC(=O)c2c(=O)c3ccc(N4CCCN(C)CC4)nc3n3c2sc2ccccc23)cn1,IC50,second compound 0.0316 µM,13.3 nM
same,IC50,second compound 0.1 µM,< 0.999 nM
same,IC50,second compound 0.316 µM,< 0.999 nM
same,IC50,second compound 1 µM,< 0.999 nM
same,IC50,second compound 3.16 µM,< 0.999 nM
same,IC50,second compound 10 µM,< 0.999 nM
same,"viability, T/C",[13],69.8%
same,"viability, T/C",[14],57.8%
same,"viability, T/C",[15],60.4%
same,"viability, T/C",[1],19.8%
same,"viability, T/C",[16],12.4%
same,"viability, T/C",[2],8.43%
same,"viability, T/C",[17],33%
same,"viability, T/C",[18],34.3%
same,"viability, T/C",[19],31.3%
same,"viability, T/C",[3],15.8%
same,"viability, T/C",[20],12%
same,"viability, T/C",[4],9.62%
same,"viability, T/C",[21],24.3%
same,"viability, T/C",[22],29.3%
same,"viability, T/C",[23],18%
same,"viability, T/C",[5],12.4%
same,"viability, T/C",[24],11.9%
same,"viability, T/C",[6],8.87%
same,"viability, T/C",[25],21.8%
same,"viability, T/C",[26],18.1%
same,"viability, T/C",[27],12.3%
same,"viability, T/C",[7],11.1%
same,"viability, T/C",[28],13.1%
same,"viability, T/C",[8],9.29%
same,"viability, T/C",[29],10.1%
same,"viability, T/C",[30],8.55%
same,"viability, T/C",[31],9.85%
same,"viability, T/C",[9],8.98%
same,"viability, T/C",[32],10.3%
same,"viability, T/C",[10],8.29%
same,"viability, T/C",[33],11.6%
same,"viability, T/C",[34],9.45%
same,"viability, T/C",[35],11.2%
same,"viability, T/C",[11],8.53%
same,"viability, T/C",[36],10%
same,"viability, T/C",[12],9.32%
CCc1c2c(nc3ccc(O)cc13)-c1cc3c(c(=O)n1C2)COC(=O)[C@]3(O)CC + Cc1cnc(CNC(=O)c2c(=O)c3ccc(N4CCCN(C)CC4)nc3n3c2sc2ccccc23)cn1,IC50,second compound 0.0316 µM,< 0.999 nM
same,IC50,second compound 0.1 µM,< 0.999 nM
same,IC50,second compound 0.316 µM,< 0.999 nM
same,IC50,second compound 1 µM,< 0.999 nM
same,IC50,second compound 3.16 µM,< 0.999 nM
same,IC50,second compound 10 µM,< 0.999 nM
same,"viability, T/C",[13],31.5%
same,"viability, T/C",[14],13.3%
same,"viability, T/C",[15],9.95%
same,"viability, T/C",[1],8.54%
same,"viability, T/C",[16],4.31%
same,"viability, T/C",[2],1.99%
same,"viability, T/C",[17],17.2%
same,"viability, T/C",[18],8.8%
same,"viability, T/C",[19],9.75%
same,"viability, T/C",[3],7.73%
same,"viability, T/C",[20],4.92%
same,"viability, T/C",[4],2.18%
same,"viability, T/C",[21],14.4%
same,"viability, T/C",[22],10.9%
same,"viability, T/C",[23],8.79%
same,"viability, T/C",[5],6.94%
same,"viability, T/C",[24],6.74%
same,"viability, T/C",[6],2.05%
same,"viability, T/C",[25],10.6%
same,"viability, T/C",[26],10.6%
same,"viability, T/C",[27],9.03%
same,"viability, T/C",[7],9.75%
same,"viability, T/C",[28],5.59%
same,"viability, T/C",[8],1.55%
same,"viability, T/C",[29],11.3%
same,"viability, T/C",[30],7%
same,"viability, T/C",[31],6.92%
same,"viability, T/C",[9],5.6%
same,"viability, T/C",[32],3.86%
same,"viability, T/C",[10],0.83%
same,"viability, T/C",[33],7.27%
same,"viability, T/C",[34],8.08%
same,"viability, T/C",[35],7.06%
same,"viability, T/C",[11],6.04%
same,"viability, T/C",[36],3.78%
same,"viability, T/C",[12],0.4%
